Experimental data taken from ChEMBL document CHEMBL2046372, “Design and synthesis of pyrrolo[3,2-d]pyrimidine human epidermal growth factor receptor 2 (HER2)/epidermal growth factor receptor (EGFR) dual inhibitors: exploration of novel back-pocket binders” (J Med Chem, 2012).
Calls of active or inactive are those of the source. No cut-off for these calls is given here.

Experiments:
[1] = Metabolic stability in human liver microsomes at 1 umol/L after 20 mins by HPLC analysis; assay type: ADME, Microsome; conditions: read-out: Stability
[2] = biological target: Epidermal growth factor receptor (Homo sapiens, UniProt P00533); test: Inhibition of N-terminus peptide-tagged human recombinant EGFR expressed using baculovirus infection system using [gamma-33P]-ATP preincubated with compound for 5 mins measured after 10 mins by scintillation counting
Sequence of Epidermal growth factor receptor (P00533 whole entry): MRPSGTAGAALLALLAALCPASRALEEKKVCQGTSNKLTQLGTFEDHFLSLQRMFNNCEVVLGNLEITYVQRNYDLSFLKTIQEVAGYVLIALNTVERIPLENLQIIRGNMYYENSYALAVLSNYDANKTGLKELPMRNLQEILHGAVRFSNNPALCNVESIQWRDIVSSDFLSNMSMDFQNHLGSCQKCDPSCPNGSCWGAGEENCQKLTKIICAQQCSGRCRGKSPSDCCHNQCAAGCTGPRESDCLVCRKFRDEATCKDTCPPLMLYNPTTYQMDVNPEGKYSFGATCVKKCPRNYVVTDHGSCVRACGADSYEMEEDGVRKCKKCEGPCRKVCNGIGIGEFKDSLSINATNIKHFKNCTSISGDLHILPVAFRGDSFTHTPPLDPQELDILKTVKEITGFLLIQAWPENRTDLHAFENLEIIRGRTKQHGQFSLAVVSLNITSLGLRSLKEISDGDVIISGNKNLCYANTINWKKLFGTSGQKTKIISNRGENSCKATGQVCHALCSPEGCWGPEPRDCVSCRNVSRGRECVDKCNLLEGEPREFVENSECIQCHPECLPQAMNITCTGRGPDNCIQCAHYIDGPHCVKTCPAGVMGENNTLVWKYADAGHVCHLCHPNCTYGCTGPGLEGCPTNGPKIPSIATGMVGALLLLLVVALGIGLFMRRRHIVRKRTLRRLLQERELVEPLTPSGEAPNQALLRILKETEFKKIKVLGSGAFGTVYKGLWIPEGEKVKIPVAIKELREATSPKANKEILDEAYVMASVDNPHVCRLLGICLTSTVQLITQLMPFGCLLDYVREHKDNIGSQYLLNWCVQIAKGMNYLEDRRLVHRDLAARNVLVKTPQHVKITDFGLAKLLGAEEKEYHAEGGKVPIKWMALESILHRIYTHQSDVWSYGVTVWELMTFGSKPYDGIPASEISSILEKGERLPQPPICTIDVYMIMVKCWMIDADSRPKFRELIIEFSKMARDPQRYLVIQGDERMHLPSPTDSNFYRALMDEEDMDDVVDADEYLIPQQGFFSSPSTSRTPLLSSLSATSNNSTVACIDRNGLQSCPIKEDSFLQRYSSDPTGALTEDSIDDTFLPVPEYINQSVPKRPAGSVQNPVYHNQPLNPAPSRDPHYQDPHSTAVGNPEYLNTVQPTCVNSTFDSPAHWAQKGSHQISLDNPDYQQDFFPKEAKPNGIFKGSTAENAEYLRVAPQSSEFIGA

[3] = Metabolic stability in mouse liver microsomes at 1 umol/L after 20 mins by HPLC analysis; assay type: ADME, Microsome; conditions: read-out: Stability
[4] = biological target: T1, Receptor tyrosine-protein kinase erbB-2 (Homo sapiens, UniProt P04626); test: Inhibition of N-terminus peptide-tagged human recombinant HER2 expressed using baculovirus infection system using [gamma-33P]-ATP preincubated with compound for 5 mins measured after 10 mins by scintillation counting
T1 sequence (P04626 whole entry): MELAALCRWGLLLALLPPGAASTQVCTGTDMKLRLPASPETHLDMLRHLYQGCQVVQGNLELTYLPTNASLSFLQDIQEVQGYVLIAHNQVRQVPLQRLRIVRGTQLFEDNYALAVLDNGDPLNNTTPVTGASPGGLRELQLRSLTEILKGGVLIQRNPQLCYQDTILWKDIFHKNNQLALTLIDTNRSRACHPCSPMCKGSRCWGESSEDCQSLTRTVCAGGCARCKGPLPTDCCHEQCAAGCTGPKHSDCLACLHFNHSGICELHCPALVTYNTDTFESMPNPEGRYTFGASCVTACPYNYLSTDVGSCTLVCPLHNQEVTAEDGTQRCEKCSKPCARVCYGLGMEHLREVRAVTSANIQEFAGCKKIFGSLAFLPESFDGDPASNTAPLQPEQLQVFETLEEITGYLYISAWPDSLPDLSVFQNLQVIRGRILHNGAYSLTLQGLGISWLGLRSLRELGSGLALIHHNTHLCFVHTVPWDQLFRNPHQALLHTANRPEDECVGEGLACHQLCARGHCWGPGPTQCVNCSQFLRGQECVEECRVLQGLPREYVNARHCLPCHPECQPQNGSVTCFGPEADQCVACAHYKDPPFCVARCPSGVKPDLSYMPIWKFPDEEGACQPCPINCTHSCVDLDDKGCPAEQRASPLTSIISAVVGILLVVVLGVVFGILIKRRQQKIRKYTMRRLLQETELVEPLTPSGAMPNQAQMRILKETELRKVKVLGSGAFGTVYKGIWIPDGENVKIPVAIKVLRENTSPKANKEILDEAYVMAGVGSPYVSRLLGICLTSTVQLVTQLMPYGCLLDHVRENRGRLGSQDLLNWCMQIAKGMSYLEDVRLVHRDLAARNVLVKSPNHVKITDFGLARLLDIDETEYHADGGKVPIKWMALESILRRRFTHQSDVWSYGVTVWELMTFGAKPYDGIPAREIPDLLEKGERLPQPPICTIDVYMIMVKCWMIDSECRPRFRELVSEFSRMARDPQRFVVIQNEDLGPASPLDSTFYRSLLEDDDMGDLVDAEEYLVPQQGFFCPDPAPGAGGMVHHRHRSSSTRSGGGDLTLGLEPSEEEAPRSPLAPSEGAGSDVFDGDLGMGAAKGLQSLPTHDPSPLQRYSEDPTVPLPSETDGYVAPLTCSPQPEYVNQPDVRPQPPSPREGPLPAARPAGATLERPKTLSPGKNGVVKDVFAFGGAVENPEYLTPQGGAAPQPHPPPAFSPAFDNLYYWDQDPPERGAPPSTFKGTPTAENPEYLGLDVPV

BT-474 = test: Growth inhibition of human BT474 cells overexpressing HER2 gene after 5 days; assay type: functional; conditions: BT-474, 120 h
[5] = biological target: T1, Receptor tyrosine-protein kinase erbB-2; test: Pseudo-irreversible inhibition of N-terminus peptide-tagged human recombinant HER2 expressed using baculovirus infection system using [gamma-33P]-ATP preincubated with compound for 5 mins at 10 times IC50 concentration measured after 10 mins by scintillation counting
CYP3A4 = CYP3A4 (Homo sapiens, UniProt P08684); test: Inhibition of CYP3A4 at 10 uM after 15 mins; assay type: ADME
Sequence of CYP3A4 (P08684 whole entry): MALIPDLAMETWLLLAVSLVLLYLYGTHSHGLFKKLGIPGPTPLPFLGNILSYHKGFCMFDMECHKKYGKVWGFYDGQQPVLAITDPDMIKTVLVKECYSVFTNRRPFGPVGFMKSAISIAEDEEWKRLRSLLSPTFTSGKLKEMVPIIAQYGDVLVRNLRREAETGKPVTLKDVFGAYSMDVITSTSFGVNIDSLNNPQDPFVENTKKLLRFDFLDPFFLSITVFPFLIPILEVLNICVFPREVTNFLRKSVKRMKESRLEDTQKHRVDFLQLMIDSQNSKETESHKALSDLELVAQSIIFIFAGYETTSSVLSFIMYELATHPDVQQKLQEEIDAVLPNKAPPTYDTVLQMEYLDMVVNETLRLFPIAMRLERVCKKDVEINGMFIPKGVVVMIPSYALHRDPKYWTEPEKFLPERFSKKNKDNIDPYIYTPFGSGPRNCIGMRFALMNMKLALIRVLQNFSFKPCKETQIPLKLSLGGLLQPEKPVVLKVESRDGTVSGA

microsomal CLint at 1 µM [1] [µL/min/mg] | IC50 [2] [nM] | microsomal CLint at 1 µM [3] [µL/min/mg] | IC50 [4] [nM] | GI50 (BT-474) [nM] | inhibition [5] | inhibition at 0.25 h, 10 µM (CYP3A4) [%] | SMILES
113 | 7 | 88 | 3.3 | 8.6 |  |  | CC(C)(CO)C(=O)NCCn1ccc2ncnc(Nc3ccc(Oc4cccc5sncc45)c(Cl)c3)c21
141 | 3 | 66 | 1.6 | 13 | Active |  | O=C1Cc2c(cccc2Oc2ccc(Nc3ncnc4ccn(CCO)c34)cc2Cl)N1
 | 510 |  | 18 | 4080 | inactive |  | O=C1NCc2cc(Oc3ccc(Nc4ncnc5ccn(CCO)c45)cc3Cl)ccc21
117 | 7 | 145 | 2.2 | 9.4 |  | 62.6 | CC(C)(O)C(=O)NCCn1ccc2ncnc(Nc3ccc(Oc4cccc5sncc45)c(Cl)c3)c21
204 | 3.1 |  | 2.5 | 36 | Active |  | OCCn1ccc2ncnc(Nc3ccc(Oc4cccc5[nH]ccc45)c(Cl)c3)c21
 | 2300 |  | 130 | 1880 | inactive |  | O=C1Cc2ccc(Oc3ccc(Nc4ncnc5ccn(CCO)c45)cc3Cl)cc2N1
 | 7.8 |  | 1.3 | 43 | Active |  | O=C1NCc2ccc(Oc3ccc(Nc4ncnc5ccn(CCO)c45)cc3Cl)cc21
133 | 2.9 | 100 | 1.6 | 4 |  | 57 | CC(=O)NCCn1ccc2ncnc(Nc3ccc(Oc4cccc5sncc45)c(Cl)c3)c21
113 | 5.5 | 76 | 2 | 8 |  | 49.9 | CC(C)(C(=O)NCCn1ccc2ncnc(Nc3ccc(Oc4cccc5sncc45)c(Cl)c3)c21)S(C)(=O)=O
61 | 3 | 74 | 0.92 | 5.8 |  | 35 | O=C(NCCn1ccc2ncnc(Nc3ccc(Oc4cccc5sncc45)c(Cl)c3)c21)[C@@H]1CCCN1
 | 34 |  |  |  |  |  | OCCn1ccc2ncnc(Nc3ccc(Oc4cccc(C(F)(F)F)c4)c(Cl)c3)c21
 |  |  | 1.5 | 73 | Active |  | O=C1Cc2cccc(Oc3ccc(Nc4ncnc5ccn(CCO)c45)cc3Cl)c2N1
 | 890 |  | 150 | 3360 | inactive |  | O=C1NCc2c(Oc3ccc(Nc4ncnc5ccn(CCO)c45)cc3Cl)cccc21
 | 21 |  | 2.5 | 768 | inactive |  | O=C1NCc2cccc(Oc3ccc(Nc4ncnc5ccn(CCO)c45)cc3Cl)c21
114 | 1.9 | 123 | 1.7 | 5.5 | Active |  | OCCn1ccc2ncnc(Nc3ccc(Oc4cccc5[nH]ncc45)c(Cl)c3)c21
219 | 36 | 106 | 2.1 | 164 | inactive |  | Cn1ncc2c(Oc3ccc(Nc4ncnc5ccn(CCO)c45)cc3Cl)cccc21
144 | 8.8 | 24 | 6 | 15 | Active |  | OCCn1ccc2ncnc(Nc3ccc(Oc4cccc5sccc45)c(Cl)c3)c21
 | 960 |  | 28 | 1350 | inactive |  | O=C1Cc2cc(Oc3ccc(Nc4ncnc5ccn(CCO)c45)cc3Cl)ccc2N1
 | 33 |  | 2.3 | 88 |  |  | CC(C)(C)NC(=O)c1cccc(Oc2ccc(Nc3ncnc4ccn(CCO)c34)cc2Cl)c1
